Patent US9686971B2, “Methods for testing anti-thrombotic agents” (The Trustees of Columbia University in the City of New York, priority 2006, dated 2017)
“Also recorded” adds a separate entry of the source. Each block holds one molecule with its values, some of them ahead of it.

Tests used:
[1] = test system: human platelets; experiment: Ex vivo platelet adhesion, human whole blood over immobilized plasma VWF or rVWF-A1, 1600 s^-1; type: cell-based; conditions: for human platelet deposition as compared with same-species controls / human platelet accumulation on immobilized protein: human whole blood; for human platelet deposition as compared with same-species controls: 1600 s^-1, 4 min; for translocation velocities of human platelets: mean±s.e.m, n=4; for human platelet accumulation on immobilized protein: 1600 s^-1
Protocol: (§1) Experiments were performed in a parallel-plate flow chamber as previously described (Offermanns, S. (2006) Circ. Res. 99, 1293-1304). For studies involving plasma VWF, a polyclonal anti-VWF antibody (Dako) was absorbed overnight (4° C.) to a six well tissue culture plate. Subsequently, the plate was washed and non-specific interactions blocked by the addition of TBS containing 3% BSA, pH 7.4 (1 h, 37° C.). Human or murine plasma obtained from heparinized whole blood was added and the plates placed at 37° C. for an additional 2 h. Generation, purification, and surface-immobilization of recombinant VWF-A1 proteins was performed as previously described (Doggett, T. A. et al. Biophys. J. 83, 194-205 (2002)). Both human and murine VWF-A1 constructs consist of amino acid residues 1238 to 1471, with a single intra-disulfide bond formed between residues 1272 and 1458 and were generated in bacteria. Citrated whole blood (150 μl) collected via cardiac puncture from anesthetized homozygous VWF^1326R>H or WT mice or from venopuncture from human volunteers was perfused over the immobilized substrates at a wall shear rate of 1600 s^−1 for 4 min, followed by washing with Tyrode's buffer under the identical flow conditions. The number of platelets attached per unit area (0.07 mm^2) and translocation velocities were determined by off-line analysis (Image-Pro Plus, Media Cybernetics). For GPIbα inhibition studies, the function-blocking mAb 6D1 (20 μg/ml) or mAb SZ2 (20 μg/ml; Beckman Coulter) was added to anticoagulated human blood for 30 min prior to use. Experiments were performed in triplicate on two separate days. An ELISA was used to ensure equivalent coating concentration of plasma and recombinant proteins (Denis, C. et al. (1998) Proc. Natl. Acad. Sci. USA 95, 9524-9529).

[2] = target: T1, GPIb alpha (Homo sapiens, UniProt P07359); experiment: Transient tether kinetics of VWF-A1 coated microspheres on surface-immobilized human platelets; type: binding; conditions: VWF-A1 coated beads, wall shear stress 1 dyn cm^−2
T1 construct: enables evaluation of GPIb alpha in its native form (i.e. correct orientation and proper post-translational modification); endogenous in cells; host or cells: human platelets purified by gel filtration, immobilized on Fab fragments of mAb 7E3
T1 sequence (P07359 17-652): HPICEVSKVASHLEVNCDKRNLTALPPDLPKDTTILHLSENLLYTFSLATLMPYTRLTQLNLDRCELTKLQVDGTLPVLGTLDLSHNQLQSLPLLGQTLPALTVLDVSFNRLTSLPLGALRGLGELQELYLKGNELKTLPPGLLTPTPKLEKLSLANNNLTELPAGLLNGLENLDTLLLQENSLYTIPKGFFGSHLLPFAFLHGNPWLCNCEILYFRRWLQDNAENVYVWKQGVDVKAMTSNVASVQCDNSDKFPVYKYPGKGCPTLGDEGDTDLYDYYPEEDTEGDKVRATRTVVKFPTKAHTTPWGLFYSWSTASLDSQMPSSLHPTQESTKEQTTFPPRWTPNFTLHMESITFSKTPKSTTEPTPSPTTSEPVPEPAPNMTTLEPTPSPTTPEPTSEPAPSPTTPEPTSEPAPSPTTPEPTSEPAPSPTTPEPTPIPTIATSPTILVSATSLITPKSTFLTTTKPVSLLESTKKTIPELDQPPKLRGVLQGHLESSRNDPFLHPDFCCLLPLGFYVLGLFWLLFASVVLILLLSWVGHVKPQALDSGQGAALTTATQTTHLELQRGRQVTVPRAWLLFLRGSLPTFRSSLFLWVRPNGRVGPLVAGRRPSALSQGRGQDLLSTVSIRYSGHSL
Protocol: In flow assays involving protein-coated microspheres, human or murine platelets purified by gel filtration are incubated with 10 mM sodium azide (NaN3), 50 ng/ml prostaglandin E1, and 10 μm indomethacin (Sigma Immunochemicals, St. Louis, Mo.) to reduce the possibility of activation and potential alterations in expression and/or distribution of GPIb alpha on their surface. Platelets are subsequently allowed to settle in stasis on Fab fragments of monoclonal antibodies that recognize either human (i.e., mAb 7E3) or murine (i.e., mAb NAD-1) alpha IIb/β3 in order to form a reactive substrate. […] Platelet coverage of <10% will be bound in this manner can remain relatively unactivated for up to 30 min as evident by morphology on light microscopic examination (FIG. 7A) and lack of expression of P-selectin by fluorescence microscopy (FIG. 7B).
To reduce the possibility of multiple bond formation that would result in a prolongation in interaction times between the beads and immobilized platelets, the lowest site densities of VWF-A1 capable of supporting these brief interactions is used, a value we found to correspond to ˜30 molecules μm^2. […] The force acting on the tether bond was calculated from force balance equations as stated above and koff plotted as a function of these forces. […]

[3] = test system: thrombus formation; conditions: mice; given the day before and 2 hours prior; cited from earlier work
[4] = test system: murine platelets; experiment: Ristocetin-induced platelet aggregation assay (RIPA), murine platelet rich plasma; type: cell-based, mouse
Protocol: In a Ristocetin-induced platelet aggregation assays, platelet GPIb alpha binding to wild type human VWF or mouse VWF was analyzed in the absence or presence of ristocetin as described by Inbal, et al. (1993, Thromb. Haemost., 70:1058-1062). In this method, platelet rich plasma (PRP) is placed in a clear cuvette containing a stir bar and inserted into the aggregometer. Platelet aggregation is induced by the addition of ristocetin. […] In fact, only at concentrations of ≧2.5 mg/ml was there any evidence of murine platelet aggregation observed (˜30%, FIG. 10C).

[5] = test system: human platelets; conditions: cited from earlier work
[6] = in vivo; cited from earlier work
[7] = test system: murine platelets; experiment: Ex vivo platelet adhesion, murine whole blood over immobilized plasma VWF or rVWF-A1, 1600 s^-1; type: cell-based, mouse
Protocol: as §1, with “For GPIbα inhibition studies, the function-blocking mAb 6D1 (20 μg/ml) or mAb SZ2 (20 μg/ml; Beckman Coulter) was added to anticoagulated human blood for 30 min prior to use. Experiments were performed in triplicate on two separate days. An ELISA was used to ensure equivalent coating concentration of plasma and recombinant proteins (Denis, C. et al. (1998) Proc. Natl. Acad. Sci. USA 95, 9524-9529).” left out

[8] = test system: human platelets; experiment: In vitro parallel plate flow chamber platelet adhesion on recombinant VWF-A1, 800 s^-1, human platelets; type: cell-based; conditions: wall shear rate 800 s^-1
Protocol: (§2) The protein was subsequently used in a series of in vitro flow chamber assays to assess function. Washed human or murine platelets (5×10^7/ml) were infused through a parallel plate flow chamber containing glass cover slips coated with either human VWF-A1 or mouse VWF-A1 protein (100 μg/ml final concentration) at a shear rate of 800 s^−1. After 5 min of continuous flow, adherent platelets were quantified.
Support for this hypothesis is provided by mutagenesis studies. By analyzing the data obtained from the crystal structure of the murine VWF-A1 domain, we have identified several residues that may participate in interactions with GPIb alpha (FIG. 15C). Residue 1326 was initially chosen for study and was mutated to the corresponding amino acid at the identical location in its human counterpart (from Arg to His). Subsequently, the ability of murine and human platelets to interact with this mutant protein substrate was evaluated at a wall shear rate of 800 s^−1. Incorporation of a histidine for arginine at position 1326 in murine VWF-A1 reduced murine platelet adhesion by ˜5-fold and increased translocation velocities of cells by ˜7-fold as compared to the WT mouse protein (FIGS. 13A, 13B, 16A, and 16B). […] These studies support the hypothesis that from a structural and functional standpoint, mouse and human VWF-A1 are very similar.

[9] = test system: murine platelets; experiment: In vitro parallel plate flow chamber platelet adhesion on recombinant VWF-A1, 800 s^-1, murine platelets; type: cell-based, mouse; conditions: wall shear rate 800 s^-1
Protocol: as §2
In the case of the latter, the murine A1 fragment was inserted into pET-11b (Stratagene) and purified as previously described (53).
Support for this hypothesis is provided by mutagenesis studies. By analyzing the data obtained from the crystal structure of the murine VWF-A1 domain, we have identified several residues that may participate in interactions with GPIb alpha (FIG. 15C). Residue 1326 was initially chosen for study and was mutated to the corresponding amino acid at the identical location in its human counterpart (from Arg to His). Subsequently, the ability of murine and human platelets to interact with this mutant protein substrate was evaluated at a wall shear rate of 800 s^−1. Incorporation of a histidine for arginine at position 1326 in murine VWF-A1 reduced murine platelet adhesion by ˜5-fold and increased translocation velocities of cells by ˜7-fold as compared to the WT mouse protein (FIGS. 13A, 13B, 16A, and 16B). […]

Molecule: murine plasma VWF: surface-bound wild type murine plasma VWF
human platelet deposition as compared with same-species controls [1]: 10%

Molecule: human plasma VWF: native human plasma VWF
translocation velocities of human platelets [1]: 3.2±0.1 μm/sec

koff [2]: 6.5 s⁻¹
Molecule: WT human VWF-A1: wild type recombinant human VWF-A1 domain

Molecule: COC(=O)[C@H](c1ccccc1Cl)N1CCc2sccc2C1 [clopidogrel]
maximal effective dose to reduce thrombus size and delay its formation [3]: 50 mg/kg

Molecule: thrombin
platelet aggregation ([4]; incubation of murine PRP with thrombin): > 90%

Molecule: ristocetin
effect on murine platelets at the concentration that agglutinates human platelets ([4]; murine PRP, ristocetin ~1.0 mg/ml): no such effect; also recorded: had no effect
platelet aggregation ([4]; murine PRP, ristocetin ≧2.5 mg/ml): ~30%
concentration known to cause agglutination of human platelets [5]: ~1.0 mg/mL

Molecule: murine plasma VWF^1326R>H: plasma VWF obtained from mice homozygous for VWF^1326R>H
human platelet accumulation on immobilized protein [1]: comparable with its human counterpart
translocation velocities of human platelets [1]: 3.5±0.1 μm/sec

Molecule: CCCCS(=O)(=O)N[C@@H](Cc1ccc(OCCCCC2CCNCC2)cc1)C(=O)O [Tirofiban]
plasma half-life [6]: approximately 2 hours

B1: murine VWF-A1 1326R>H: recombinant mouse VWF-A1 domain with HIS for ARG at residue 1326 (protein)
chain: EDTPEPPLHNFYCSKLLDLVFLLDGSSMLSEAEFEVLKAFVVGMMERLHISQKRIRVAVVEYHDGSHAYLELKARKRPSELRRITSQIKYTGSQVASTSEVLKYTLFQIFGKIDRPEASHITLLLTASQEPPRMARNLVRYVQGLKKKKVIVIPVGIGPHASLKQIRLIEKQAPENKAFLLSGVDELEQRRDEIVSYLCDLAPEAPAPTQPPQVAHVTVSP
reduction of mouse platelet adhesion [7]: ~75%
human platelet interactions with the protein substrate [8]: comparable to that of WT human VWF-A1
increase of translocation velocities of murine platelets compared to WT mouse protein [9]: ~7 fold
reduction of murine platelet adhesion compared to WT mouse protein [9]: ~5 fold
human platelet accumulation on immobilized protein [1]: comparable to its wild-type (WT) human counterpart

B2: murine rVWF-A1: recombinant A1 domain of murine VWF, residues 1238 to 1471 (protein)
chain: QEPGGLVAPPTDAPVSSTTPYVEDTPEPPLHNFYCSKLLDLVFLLDGSSMLSEAEFEVLKAFVVGMMERLHISQKRIRVAVVEYHDGSRAYLELKARKRPSELRRITSQIKYTGSQVASTSEVLKYTLFQIFGKIDRPEASHITLLLTASQEPPRMARNLVRYVQGLKKKKVIVIPVGIGPHASLKQIRLIEKQAPENKAFLLSGVDELEQRRDEIVSYLCDLAPEAPAPTQPP
modifications: left off: small tags and cut ends
human platelet deposition as compared with same-species controls [1]: 25%

B3: murine rVWF-A1 1330E>G: murine rVWF-A1 with human residue at position 1330 (E>G) (protein)
chain: QEPGGLVAPPTDAPVSSTTPYVEDTPEPPLHNFYCSKLLDLVFLLDGSSMLSEAEFEVLKAFVVGMMERLHISQKRIRVAVVEYHDGSRAYLGLKARKRPSELRRITSQIKYTGSQVASTSEVLKYTLFQIFGKIDRPEASHITLLLTASQEPPRMARNLVRYVQGLKKKKVIVIPVGIGPHASLKQIRLIEKQAPENKAFLLSGVDELEQRRDEIVSYLCDLAPEAPAPTQPP
modifications: left off: small tags and cut ends
human platelet accumulation on immobilized protein [1]: failed to promote the interaction

B4: murine rVWF-A1 1370S>G: murine rVWF-A1 with human residue at position 1370, printed S>G (protein)
chain: QEPGGLVAPPTDAPVSSTTPYVEDTPEPPLHNFYCSKLLDLVFLLDGSSMLSEAEFEVLKAFVVGMMERLHISQKRIRVAVVEYHDGSRAYLELKARKRPSELRRITSQIKYTGSQVASTSEVLKYTLFQIFSKIDRPEASHITLLLTASQEPPRMARNLVRYVQGLKKKKVIVIPVGIGPHASLKQIRLIEKQAPENKAFLLSGVDELEQRRDEIVSYLCDLAPEAPAPTQPP
modifications: left off: small tags and cut ends
notes: murine rVWF-A1 with human residue at position 1370, printed S>G
human platelet accumulation on immobilized protein [1]: failed to promote the interaction
